Tests used:
CCRF-CEM = assay: NCI single dose (10 µM) SRB screen; type: cell-based, human; conditions: leukaemia, 48 h
HL-60(TB) = assay: NCI single dose (10 µM) SRB screen; type: cell-based, human; conditions: leukaemia, 48 h
K-562 = assay: NCI single dose (10 µM) SRB screen; type: cell-based, human; conditions: leukaemia, 48 h
RPMI-8226 = assay: NCI single dose (10 µM) SRB screen; type: cell-based, human; conditions: leukaemia, 48 h
SR = assay: NCI single dose (10 µM) SRB screen; type: cell-based, human; conditions: leukaemia, 48 h
HOP-92 = assay: NCI single dose (10 µM) SRB screen; type: cell-based, human; conditions: non-small cell lung cancer, 48 h
NCI-H226 = assay: NCI single dose (10 µM) SRB screen; type: cell-based, human; conditions: non-small cell lung cancer, 48 h
NCI-H23 = assay: NCI single dose (10 µM) SRB screen; type: cell-based, human; conditions: non-small cell lung cancer, 48 h
NCI-H322M = assay: NCI single dose (10 µM) SRB screen; type: cell-based; conditions: non-small cell lung cancer, 48 h
NCI-H460 = assay: NCI single dose (10 µM) SRB screen; type: cell-based, human; conditions: non-small cell lung cancer, 48 h
NCI-H522 = assay: NCI single dose (10 µM) SRB screen; type: cell-based, human; conditions: non-small cell lung cancer, 48 h
COLO 205 = assay: NCI single dose (10 µM) SRB screen; type: cell-based, human; conditions: colon cancer, 48 h
HCC-2998 = assay: NCI single dose (10 µM) SRB screen; type: cell-based, human; conditions: colon cancer, 48 h
HCT-116 = assay: NCI single dose (10 µM) SRB screen; type: cell-based, human; conditions: colon cancer, 48 h
HCT-15 = assay: NCI single dose (10 µM) SRB screen; type: cell-based, human; conditions: colon cancer, 48 h
KM12 = assay: NCI single dose (10 µM) SRB screen; type: cell-based, human; conditions: colon cancer, 48 h
SF-295 = assay: NCI single dose (10 µM) SRB screen; type: cell-based, human; conditions: CNS cancer, 48 h
SNB-19 = assay: NCI single dose (10 µM) SRB screen; type: cell-based, human; conditions: CNS cancer, 48 h
SNB-75 = assay: NCI single dose (10 µM) SRB screen; type: cell-based, human; conditions: CNS cancer, 48 h
U251 = assay: NCI single dose (10 µM) SRB screen; type: cell-based, human; conditions: CNS cancer, 48 h
MALME-3M = assay: NCI single dose (10 µM) SRB screen; type: cell-based, human; conditions: melanoma, 48 h
M14 = assay: NCI single dose (10 µM) SRB screen; type: cell-based, human; conditions: melanoma, 48 h
SK-MEL-2 = assay: NCI single dose (10 µM) SRB screen; type: cell-based, human; conditions: melanoma, 48 h
SK-MEL-28 = assay: NCI single dose (10 µM) SRB screen; type: cell-based, human; conditions: melanoma, 48 h
UACC-257 = assay: NCI single dose (10 µM) SRB screen; type: cell-based, human; conditions: melanoma, 48 h
UACC-62 = assay: NCI single dose (10 µM) SRB screen; type: cell-based, human; conditions: melanoma, 48 h
IGROV1 = assay: NCI single dose (10 µM) SRB screen; type: cell-based, human; conditions: ovarian cancer, 48 h
OVCAR-3 = assay: NCI single dose (10 µM) SRB screen; type: cell-based, human; conditions: ovarian cancer, 48 h
OVCAR-4 = assay: NCI single dose (10 µM) SRB screen; type: cell-based, human; conditions: ovarian cancer, 48 h
OVCAR-5 = assay: NCI single dose (10 µM) SRB screen; type: cell-based, human; conditions: ovarian cancer, 48 h
SK-OV-3 = assay: NCI single dose (10 µM) SRB screen; type: cell-based, human; conditions: ovarian cancer, 48 h
786-0 = assay: NCI single dose (10 µM) SRB screen; type: cell-based, human; conditions: renal cancer, 48 h
ACHN = assay: NCI single dose (10 µM) SRB screen; type: cell-based, human; conditions: renal cancer, 48 h
CAKI-1 = assay: NCI single dose (10 µM) SRB screen; type: cell-based, human; conditions: renal cancer, 48 h
RXF 393 = assay: NCI single dose (10 µM) SRB screen; type: cell-based, human; conditions: renal cancer, 48 h
SN12C = assay: NCI single dose (10 µM) SRB screen; type: cell-based, human; conditions: renal cancer, 48 h
TK-10 = assay: NCI single dose (10 µM) SRB screen; type: cell-based, human; conditions: renal cancer, 48 h
UO-31 = assay: NCI single dose (10 µM) SRB screen; type: cell-based, human; conditions: renal cancer, 48 h
PC-3 = assay: NCI single dose (10 µM) SRB screen; type: cell-based, human; conditions: prostate cancer, 48 h
MCF7 = assay: NCI single dose (10 µM) SRB screen; type: cell-based, human; conditions: breast cancer, 48 h
HS578T = assay: NCI single dose (10 µM) SRB screen; type: cell-based, human; conditions: breast cancer, 48 h
BT-549 = assay: NCI single dose (10 µM) SRB screen; type: cell-based, human; conditions: breast cancer, 48 h
T-47D = assay: NCI single dose (10 µM) SRB screen; type: cell-based, human; conditions: breast cancer, 48 h
MDA-MB-468 = assay: NCI single dose (10 µM) SRB screen; type: cell-based, human; conditions: breast cancer, 48 h
NCI 60 cancer cell lines = assay: NCI single dose (10 µM) SRB screen, mean over panel; type: cell-based, human; conditions: mean over 60 cell lines, 48 h
Staphylococcus aureus = assay: Agar well diffusion method
Bacillus subtilis = assay: Agar well diffusion method
Escherichia coli = assay: Agar well diffusion method
Pseudomonas aeruginosa = assay: Agar well diffusion method
Candida albicans = assay: Agar well diffusion method
Aspergillus flavus = assay: Agar well diffusion method

CCOC(=O)C1=C(C)NC(C)=C(C(=O)OCC)C1c1cccc(C#N)c1 [Compound 1b, Diethyl 4-(3-cyanophenyl)-2,6-dimethyl-1,4-dihydropyridine-3,5-dicarboxylate]
GI% CCRF-CEM (CCRF-CEM): – (Only GI% ≥ 10 are shown) | GI% HL-60(TB) (HL-60(TB)): 13% | GI% K-562 (K-562): 43% | GI% RPMI-8226 (RPMI-8226): – (Only GI% ≥ 10 are shown) | GI% SR (SR): 48% | GI% HOP-92 (HOP-92): 10% | GI% NCI-H226 (NCI-H226): – (Only GI% ≥ 10 are shown) | GI% NCI-H23 (NCI-H23): – (Only GI% ≥ 10 are shown) | GI% NCI-H322M (NCI-H322M): – (Only GI% ≥ 10 are shown) | GI% NCI-H460 (NCI-H460): – (Only GI% ≥ 10 are shown) | GI% NCI-H522 (NCI-H522): 12% | GI% COLO 205 (COLO 205): – (Only GI% ≥ 10 are shown) | GI% HCC-2998 (HCC-2998): – (Only GI% ≥ 10 are shown) | GI% HCT-116 (HCT-116): 11% | GI% HCT-15 (HCT-15): 23% | GI% KM12 (KM12): 27% | GI% SF-295 (SF-295): – (Only GI% ≥ 10 are shown) | GI% SNB-19 (SNB-19): – (Only GI% ≥ 10 are shown) | GI% SNB-75 (SNB-75): 38% | GI% U251 (U251): – (Only GI% ≥ 10 are shown) | GI% MALME-3M (MALME-3M): – (Only GI% ≥ 10 are shown) | GI% M14 (M14): – (Only GI% ≥ 10 are shown) | GI% SK-MEL-2 (SK-MEL-2): – (Only GI% ≥ 10 are shown) | GI% SK-MEL-28 (SK-MEL-28): – (Only GI% ≥ 10 are shown) | GI% UACC-257 (UACC-257): – (Only GI% ≥ 10 are shown) | GI% UACC-62 (UACC-62): 20% | GI% IGROV1 (IGROV1): – (Only GI% ≥ 10 are shown) | GI% OVCAR-3 (OVCAR-3): – (Only GI% ≥ 10 are shown) | GI% OVCAR-4 (OVCAR-4): – (Only GI% ≥ 10 are shown) | GI% OVCAR-5 (OVCAR-5): – (Only GI% ≥ 10 are shown) | GI% SK-OV-3 (SK-OV-3): – (Only GI% ≥ 10 are shown) | GI% 786-0 (786-0): – (Only GI% ≥ 10 are shown) | GI% ACHN (ACHN): – (Only GI% ≥ 10 are shown) | GI% CAKI-1 (CAKI-1): 31% | GI% RXF 393 (RXF 393): 10% | GI% SN12C (SN12C): – (Only GI% ≥ 10 are shown) | GI% TK-10 (TK-10): – (Only GI% ≥ 10 are shown) | GI% UO-31 (UO-31): 13% | GI% PC-3 (PC-3): 20% | GI% MCF7 (MCF7): 15% | GI% HS578T (HS578T): 16% | GI% BT-549 (BT-549): – (Only GI% ≥ 10 are shown) | GI% T-47D (T-47D): 23% | GI% MDA-MB-468 (MDA-MB-468): 22% | Mean GI% (NCI 60 cancer cell lines): 8% | zone of inhibition at 1000 µg/mL (Staphylococcus aureus; Staphylococcus aureus, 24 h, read-out: Diameter of inhibition zone, S. aureus): 14 mm | % activity index, S. aureus (Staphylococcus aureus; relative to ciprofloxacin): 58.3% | zone of inhibition at 1000 µg/mL (Bacillus subtilis; Bacillus subtilis, 24 h, read-out: Diameter of inhibition zone, B. subtilis): 9 mm | % activity index, B. subtilis (Bacillus subtilis; relative to ciprofloxacin): 39.1% | zone of inhibition at 1000 µg/mL (Escherichia coli; Escherichia coli, 24 h, read-out: Diameter of inhibition zone, E. coli): 7 mm | % activity index, E. coli (Escherichia coli; relative to ciprofloxacin): 26.9% | zone of inhibition at 1000 µg/mL (Pseudomonas aeruginosa; Pseudomonas aeruginosa, 24 h, read-out: Diameter of inhibition zone, P. aeruginosa): 10 mm | % activity index, P. aeruginosa (Pseudomonas aeruginosa; relative to ciprofloxacin): 43.5% | zone of inhibition at 1000 µg/mL (Candida albicans; Candida albicans, 24 h, read-out: Diameter of inhibition zone, C. albicans): 15 mm | % activity index, C. albicans (Candida albicans; relative to clotrimazole): 55.5% | zone of inhibition at 1000 µg/mL (Aspergillus flavus; Aspergillus flavus, 24 h, read-out: Diameter of inhibition zone, A. flavus): 16 mm | % activity index, A. flavus (Aspergillus flavus; relative to clotrimazole): 64%

Reference: paper PMC9481151, “Discovery of new symmetrical and asymmetrical nitrile-containing 1,4-dihydropyridine derivatives as dual kinases and P-glycoprotein inhibitors: synthesis, in vitro assays, and in silico studies” (Journal of Enzyme Inhibition and Medicinal Chemistry, 2022)
